Tested on: C. reinhardtii (CC-503)
Test: C. reinhardtii growth inhibition by HPPD inhibiting herbicides
Assay type: cell-based, Chlamydomonas reinhardtii
From the text: Bleaching herbicides with a mode of action in plastoquinone or tocopherol biosynthesis can inhibit algae growth (Tables 14 and 15). These effects can be partly reversed by intermediates of homogentisic acid biosynthesis (Table 14). To generate mutations conferring “coumarone-derivative herbicide” resistance in HPPD or HST genes, chemical or UV mutagenesis can be used. Especially unicellular organisms like Chlamydomonas reinhardtii or Scenedesmus obliquus are useful for identifying dominant mutations in herbicide resistance.
Algae cells of Chlamydomonas reinhardtii strains CC-503 and CC-1691 (Duke University, Durham, USA) are propagated in TAP medium (Gorman and Levine (1965) PNAS 54: 1665-1669) by constant shaking at 100 rpm, 22° C. and 30 μmol Phot*m^−2*[…] light illumination. Scenedesmus obliquus (University of Gottingen, Germany) are propagated in algae medium as described (Boger and Sandmann, (1993) In: Target assays for modern herbicides and related phytotoxic compounds, Lewis Publishers) under same culturing conditions as mentioned for Chlamydomonas. Compound screening is performed at 450 μmol Phot*m^−2*[…] illumination.

SMILES: Cc1c(C(=O)c2cnn(C)c2O)ccc(S(C)(=O)=O)c1C1=NOCC1 [Topramezone, reference compound]
- Growth inihibition [%] C. reinhardtii (CC-503) (c 1 * 10^−4 M): 100%
- Growth inihibition [%] C. reinhardtii (CC-503) + Homogentisic acid (c 1 * 10^−4 M): 80%
- Growth inihibition [%] C. reinhardtii (CC-503) (c 5 * 10^−4 M): 100%
- Growth inihibition [%] C. reinhardtii (CC-503) + Homogentisic acid (c 5 * 10^−4 M): 100%

— patent publication US20130053243A1, “PLANTS HAVING INCREASED TOLERANCE TO HERBICIDES” (BASF SE, priority 2010, published 2013)
